Results from PMC12186255, “Discovery and Characterization of Small Molecule Inhibitors Targeting Exonuclease 1 for Homologous Recombination-Deficient Cancer Therapy” (ACS Chemical Biology, 2025).
pIC50: −log10 of the molar value.

What was measured:
[1] = tested on: MDA-MB-231 cells; experiment: Gel-based phospho-RPA end resection assay; type: cell-based, human; settings: inhibitor overnight then 2 μM CPT 2 h, C5 10 μM
Protocol: The levels of RPA32 and phosphorylated RPA32 (S33) were analyzed by Western blotting using antibodies against RPA32 and phosphorylated RPA32 (S33). The total level of tubulin was used as a control. (b) Ratio of P-RPA:RPA levels calculated from panel a. […] U2OS cells carrying a GFP reporter for HR were infected with adenovirus expressing the I-SceI restriction enzyme. […] U2OS cells carrying a GFP reporter for HR were infected with adenovirus expressing the I-SceI restriction enzyme. […] For panels c and d, after 48 h, the cells were harvested, and the GFP-positive cells were analyzed by flow cytometry. Values are the mean ± S.D. of three independent experiments.
The treated cells were then lysed in the SDS-PAGE sample buffer, and the lysate was separated by SDS-PAGE prior to immobilization on a nitrocellulose membrane and Western blotting. Antibodies against unphosphorylated RPA, S33-P-RPA2, and tubulin were subsequently assayed according to the manufacturer’s recommendations. The ratio of P-RPA/RPA levels were quantified via ImageJ.

[2] = target: T1, FEN1 (Homo sapiens, UniProt P39748); experiment: Analogous FRET-based counter screen with purified FEN1; type: biochemical; settings: FRET-based assay, maximum inhibitor concentration 100 μM
T1 construct: made in house
T1 sequence (P39748 whole entry): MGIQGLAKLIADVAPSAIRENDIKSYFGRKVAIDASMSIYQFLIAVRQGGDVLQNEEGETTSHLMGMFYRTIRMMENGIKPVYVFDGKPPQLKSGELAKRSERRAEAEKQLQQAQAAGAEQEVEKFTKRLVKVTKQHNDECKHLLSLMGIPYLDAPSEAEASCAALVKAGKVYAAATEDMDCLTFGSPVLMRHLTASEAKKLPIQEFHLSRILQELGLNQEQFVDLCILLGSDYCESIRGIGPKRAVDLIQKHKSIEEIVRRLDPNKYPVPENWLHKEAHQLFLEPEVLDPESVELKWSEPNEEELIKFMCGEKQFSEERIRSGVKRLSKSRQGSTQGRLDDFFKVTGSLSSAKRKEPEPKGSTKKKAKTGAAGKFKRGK
Protocol: Data were normalized by subtracting the relative fluorescence unit (RFU) of the blank sample from that of each EXO1-containing reaction. The relative activity of individual compounds was subsequently calculated by setting the corrected RFU of EXO1 with DMSO as 100% and comparing the corrected RFU for each condition to the DMSO value. Each assay was performed by sequentially adding experimental compounds, the EXO1 enzyme, and the DNA substrate to minimize starting differences. […] Following IC50 screening, an analogous FRET-based assay was performed using purified FEN1 to assess the EXO1 specificity of each compound.
For subsequent hit confirmation, 84 compounds from the primary screen were picked from our internal stock and subjected to a dose-dependent response assay starting at 100 μM with 3-fold serial dilution. To analyze the data from the dose-dependent response assay, IC50 values for each hit were calculated through nonlinear regression analysis using GraphPad Prism 10 (GraphPad Software, Inc.). […] Subsequently, a counter screen was performed to eliminate potential false-positive hits. To accomplish this, we established an analogous FRET assay using the purified FEN1 enzyme in place of EXO1.

[3] = target: T2, EXO1 (Homo sapiens, UniProt Q9UQ84); experiment: FRET-based EXO1 exonuclease activity assay, dose-response; type: biochemical; settings: nick substrate, 30 min, 37 °C
T2 construct: made in house
T2 sequence (Q9UQ84 1-846): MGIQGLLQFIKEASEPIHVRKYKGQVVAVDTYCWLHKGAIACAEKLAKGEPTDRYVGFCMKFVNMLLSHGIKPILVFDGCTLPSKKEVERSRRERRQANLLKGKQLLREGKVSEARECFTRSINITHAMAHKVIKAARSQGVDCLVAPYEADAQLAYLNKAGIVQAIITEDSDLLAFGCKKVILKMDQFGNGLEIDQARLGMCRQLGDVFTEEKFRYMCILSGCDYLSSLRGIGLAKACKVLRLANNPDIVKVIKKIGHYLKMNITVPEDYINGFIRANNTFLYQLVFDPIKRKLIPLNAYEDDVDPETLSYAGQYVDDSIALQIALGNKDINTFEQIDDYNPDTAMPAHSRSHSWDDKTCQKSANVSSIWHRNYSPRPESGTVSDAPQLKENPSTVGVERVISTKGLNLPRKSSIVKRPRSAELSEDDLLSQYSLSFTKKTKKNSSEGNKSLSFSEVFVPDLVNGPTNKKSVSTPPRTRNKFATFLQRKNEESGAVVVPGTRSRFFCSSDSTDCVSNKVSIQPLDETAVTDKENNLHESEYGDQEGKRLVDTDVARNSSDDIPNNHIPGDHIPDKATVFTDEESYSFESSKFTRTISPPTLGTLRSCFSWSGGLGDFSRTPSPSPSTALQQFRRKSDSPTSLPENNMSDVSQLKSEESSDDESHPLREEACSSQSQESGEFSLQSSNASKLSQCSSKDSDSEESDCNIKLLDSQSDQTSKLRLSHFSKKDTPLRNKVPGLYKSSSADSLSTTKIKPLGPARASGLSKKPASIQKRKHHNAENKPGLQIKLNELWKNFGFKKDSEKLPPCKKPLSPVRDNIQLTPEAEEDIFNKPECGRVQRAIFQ
Excerpt: We developed a cell-free in vitro assay to detect EXO1 exonuclease activity based on FRET quenching. […] A ZEN quencher and IowaBlackFQ quencher were attached to the downstream oligo internally and at the 3' end, respectively, to suppress FAM signal. Two quenchers were used to provide better quenching effects than did a single quencher, as recommended by the manufacturer (IDT). The sequence of the nick substrate was as follows: up-primer: [NT]; template: [NT]; and probe: […] . When EXO1 cleaved the nick substrate, the FAM-labeled nucleotide was untethered from the substrate and yielded a bright green fluorescence. […] Fluorescent signals were measured after a 30 min incubation. […] Data were normalized by subtracting the relative fluorescence unit (RFU) of the blank sample from that of each EXO1-containing reaction. The relative activity of individual compounds was subsequently calculated by setting the corrected RFU of EXO1 with DMSO as 100% and comparing the corrected RFU for each condition to the DMSO value. Each assay was performed by sequentially adding experimental compounds, the EXO1 enzyme, and the DNA substrate to minimize starting differences.

[4] = tested on: MDA-MB-468; experiment: Cell line drug profiling, CellTiter Glo; type: cell-based, human
Protocol: (§1) We tested the cytotoxicity of representative compounds from the seven EXO1i scaffolds against a subset of the NCI-60 cell line panel along with three additional pancreatic cell lines (FG, AsPC1, and CaPan2). In general, cells were seeded in 384-well tissue culture-treated plates overnight and treated with various concentrations of each hit compound (a serial 3-fold dilution from 50 μM for all tested hits). Each concentration was performed in duplicate. Cell viability was then measured by CellTiter Glo (Promega) after 72 h of treatment.

[5] = tested on: SF-295; experiment: Cell line drug profiling, CellTiter Glo; type: cell-based, human
Protocol: as §1

[6] = tested on: ACHN; experiment: Cell line drug profiling, CellTiter Glo; type: cell-based; settings: Homo sapiens, Kidney, 72 h
Protocol: as §1

[7] = tested on: CaPan2; experiment: Cell line drug profiling, CellTiter Glo; type: cell-based; settings: Homo sapiens, Capan-2; CaPan2, Pancreatic, 72 h
Protocol: as §1

[8] = tested on: T-47D; experiment: Cell line drug profiling, CellTiter Glo; type: cell-based; settings: Homo sapiens, T47D, Breast, 72 h
Protocol: as §1

[9] = tested on: OVCAR-3; experiment: Cell line drug profiling, CellTiter Glo; type: cell-based; settings: Homo sapiens; OVCAR-3, Ovarian, 72 h
Protocol: as §1

[10] = tested on: NCI/ADR-RES; experiment: Cell line drug profiling, CellTiter Glo; type: cell-based; settings: Homo sapiens, Ovarian, 72 h
Protocol: as §1

[11] = tested on: HS 578T; experiment: Cell line drug profiling, CellTiter Glo; type: cell-based; settings: Homo sapiens, Breast, 72 h
Protocol: as §1

[12] = tested on: SF-268; experiment: Cell line drug profiling, CellTiter Glo; type: cell-based; settings: Homo sapiens; SF-268, Central Nervous System, 72 h
Protocol: as §1

[13] = tested on: PC3; experiment: Cell line drug profiling, CellTiter Glo; type: cell-based; settings: Homo sapiens, PC-3; PC3, Prostate, 72 h
Protocol: as §1

[14] = tested on: H23; experiment: Cell line drug profiling, CellTiter Glo; type: cell-based; settings: Homo sapiens, NCI-H23; H23, Lung, 72 h
Protocol: as §1

[15] = tested on: MCF7; experiment: Cell line drug profiling, CellTiter Glo; type: cell-based; settings: Homo sapiens; MCF7, Breast, 72 h
Protocol: as §1

[16] = tested on: SKOV-3; experiment: Cell line drug profiling, CellTiter Glo; type: cell-based; settings: Homo sapiens, SK-OV-3; SKOV-3, Ovarian, 72 h
Protocol: as §1

[17] = tested on: OVCAR-8; experiment: Cell line drug profiling, CellTiter Glo; type: cell-based; settings: Homo sapiens; OVCAR-8, Ovarian, 72 h
Protocol: as §1

[18] = tested on: SK-MEL-28; experiment: Cell line drug profiling, CellTiter Glo; type: cell-based; settings: Homo sapiens; SK-MEL-28, Melanoma, 72 h
Protocol: as §1

[19] = tested on: DU145 (B3); experiment: Cell line drug profiling, CellTiter Glo; type: cell-based; settings: Homo sapiens, DU-145, Prostate, 72 h
Protocol: as §1

[20] = tested on: DU145; experiment: Cell line drug profiling, CellTiter Glo; type: cell-based; settings: Homo sapiens, DU-145; DU145, Prostate, 72 h
Protocol: as §1

[21] = tested on: OVCAR-5; experiment: Cell line drug profiling, CellTiter Glo; type: cell-based; settings: Homo sapiens; OVCAR-5, Ovarian, 72 h
Protocol: as §1

[22] = tested on: FG; experiment: Cell line drug profiling, CellTiter Glo; type: cell-based; settings: Homo sapiens, Pancreatic, 72 h
Protocol: as §1

[23] = tested on: MCF7 (B3); experiment: Cell line drug profiling, CellTiter Glo; type: cell-based; settings: Homo sapiens, Breast, 72 h
Protocol: as §1

[24] = tested on: HL-60(TB); experiment: Cell line drug profiling, CellTiter Glo; type: cell-based; settings: Homo sapiens, Leukemia, 72 h
Protocol: as §1

[25] = tested on: UO-31; experiment: Cell line drug profiling, CellTiter Glo; type: cell-based; settings: Homo sapiens; UO-31, Kidney, 72 h
Protocol: as §1

[26] = tested on: IGR-OV1; experiment: Cell line drug profiling, CellTiter Glo; type: cell-based; settings: Homo sapiens, IGROV-1; IGR-OV1, Ovarian, 72 h
Protocol: as §1

[27] = tested on: BT549; experiment: Cell line drug profiling, CellTiter Glo; type: cell-based; settings: Homo sapiens, BT-549; BT549, Breast, 72 h
Protocol: as §1

[28] = tested on: AsPC1; experiment: Cell line drug profiling, CellTiter Glo; type: cell-based; settings: Homo sapiens; AsPC1, Pancreatic, 72 h
Protocol: as §1

[29] = tested on: UACC-257; experiment: Cell line drug profiling, CellTiter Glo; type: cell-based; settings: Homo sapiens; UACC-257, Melanoma, 72 h
Protocol: as §1

[30] = tested on: OVCAR-4; experiment: Cell line drug profiling, CellTiter Glo; type: cell-based; settings: Homo sapiens; OVCAR-4, Ovarian, 72 h
Protocol: as §1

[31] = tested on: CCRF-CEM; experiment: Cell line drug profiling, CellTiter Glo; type: cell-based; settings: Homo sapiens, Leukemia, 72 h
Protocol: as §1

[32] = tested on: SNB-19; experiment: Cell line drug profiling, CellTiter Glo; type: cell-based; settings: Homo sapiens; SNB-19, Central Nervous System, 72 h
Protocol: as §1

[33] = tested on: MDA-MB-231; experiment: Cell line drug profiling, CellTiter Glo; type: cell-based; settings: Homo sapiens; MDA-MB-231, Breast, 72 h
Protocol: as §1

[34] = tested on: U251; experiment: Cell line drug profiling, CellTiter Glo; type: cell-based; settings: Homo sapiens, U-251; U251, Central Nervous System, 72 h
Protocol: as §1

[35] = target: T2, EXO1; experiment: Thermal shift assay; type: binding; settings: maximum shift in Tm of EXO1 vs DMSO, increasing inhibitor concentrations
Protocol: To assess for changes in the thermal stability of EXO1 protein in response to treatment with candidate small molecule inhibitors or DMSO (vehicle control), the thermal shift assay (Applied Biosystems Protein Thermal Shift Dye Kit, Cat. #4461146) was utilized. The protein melt reaction mix consisted of freshly prepared 10× thermal shift dye, purified EXO1 enzyme (1 μg/uL), thermal shift buffer, DMSO or inhibitors, and sterilized Milli-Q water. A drug-free supermix was premade and dispensed in 96-well PCR plates followed by the addition of DMSO or inhibitors with increasing concentration. The reaction plate was heated from 10 to 98 °C at a rate of 0.5° per 10 s cycle, and the fluorescence intensity of individual wells was measured at 490/530 nm using a BioRad CFX96 Touch Real-Time PCR System. The fluorescence measurements of three technical replicates per treatment condition were then averaged to calculate melting temperature shift (ΔT m) as a readout for compound binding affinity.

For `O=C(O)c1c[nH]c2c([N+](=O)[O-])cccc2c1=O` [C5, reference compound], the “CPT-induced P-RPA levels (DNA end resection)” value [1] was “significant reduction”.
Compound `Cc1c(Cl)cccc1NCc1cc(=O)n2nc(-c3ccc(C(C)(C)C)cc3)nc2[nH]1` [D351] has a pIC50 [2] of less than 4.00 and a pIC50 [3] of 5.10.
In the case of `O=S(=O)(Nc1nc2n(n1)C(c1ccc(F)cc1)C=C(c1ccccc1)N2)c1ccc(Cl)cc1` (stereo not shown) [D413-0213], the pIC50 ([4]; MDA-MB-468, Breast, 72 h) was 4.70 and the pIC50 ([5]; SF-295, Central Nervous System, 72 h) was 4.40.
With `O=S(=O)(Nc1nc2n(n1)C(c1ccccc1)C=C(c1ccc(Cl)cc1)N2)c1ccc(Cl)cc1` (stereo not shown) [D413] the pIC50 [2] was less than 4.00.
In the case of `O=C(Nc1ccc(N2CCC(Cc3ccccc3)CC2)cc1C(=O)O)c1ccccc1Cl` [F685], the pIC50 [6] was 4.70, the pIC50 [7] was 4.35 and the pIC50 [8] was 4.77. The pIC50 [9] was 5.24, the pIC50 [10] was 4.75 and the pIC50 [11] was 4.64. For the same compound, the pIC50 [12] was 4.31, the pIC50 [13] was 4.70 and the pIC50 [14] was 4.63. It also gave a pIC50 [15] of 4.36, a pIC50 [16] of 4.61 and a pIC50 [17] of 4.73. The pIC50 [18] was 4.33, the pIC50 [19] was 4.85 and the pIC50 [20] was 4.90. It also gave a pIC50 [21] of 4.71, a pIC50 [22] of less than 4.30 and a pIC50 [23] of 4.43. It also gave a pIC50 [24] of 4.76, a pIC50 [25] of 5.08 and a pIC50 [26] of 4.74. The pIC50 [27] was 4.75, the pIC50 [28] was 4.36 and the pIC50 [29] was 4.67. For the same compound, the pIC50 [30] was 4.67, the pIC50 [31] was 4.83 and the pIC50 [32] was 4.78. For the same compound, the pIC50 [33] was 4.50, the pIC50 [34] was 4.85 and the pIC50 ([4]; Homo sapiens, MDA-MB-468, 72 h) was 4.33. The pIC50 ([5]; Homo sapiens, SF-295, 72 h) was 4.55 and the pIC50 [2] was less than 4.00.
Compound `Cc1ccccc1C(=O)Nc1ccc(N2CCN(c3ccccc3Cl)CC2)c(C(=O)O)c1` [G889] has a pIC50 [2] of less than 4.00 and a ΔT m [35] of roughly 1 °C.
